Assay: wn = mass fraction of the nth substance listed
Details: 102 kPa, Liquid, Vibrating tube method

O=S(=O)(O)O [sulfuric acid] + O
mass density [kg/m3]
Details | 273.15 K | 283.15 K | 293.15 K | 298.15 K | 303.15 K | 313.15 K | 323.15 K | 333.15 K
w1 = 0.0966 | 1069.26 | 1066.08 | 1062.3 | 1060.23 | 1058.04 | 1053.6 | 1049.23 | 1043.53
w1 = 0.1151 | 1085.84 | 1082.07 | 1077.83 | 1075.55 | 1073.22 | 1068.89 | 1063.56 | 1058.71
w1 = 0.1365 | 1101.81 | 1097.5 | 1092.86 | 1090.39 | 1087.86 | 1082.6 | 1078.45 | 1072.64
w1 = 0.1536 | 1114.2 | 1109.5 | 1104.52 | 1101.94 | 1099.31 | 1093.86 | 1089.88 | 1084.63
w1 = 0.1728 | 1128.95 | 1123.83 | 1118.46 | 1115.73 | 1112.95 | 1107.33 | 1101.93 | 1095.88
w1 = 0.192 | 1145.91 | 1140.32 | 1134.59 | 1131.69 | 1128.88 | 1123.78 | 1118.59 | 1113.22
w1 = 0.2112 | 1159.41 | 1153.51 | 1147.52 | 1144.52 | 1141.48 | 1135.36 | 1129.37 | 1124.62
w1 = 0.2304 | 1177.19 | 1170.92 | 1164.6 | 1161.54 | 1158.39 | 1152.03 | 1148.5 | 1140.31
w1 = 0.2409 | 1185.57 | 1179.14 | 1172.69 | 1169.48 | 1166.27 | 1160.54 | 1154.05 | 1147.47
w1 = 0.2688 | 1209.44 | 1201.63 | 1194.85 | 1191.58 | 1188.22 | 1181.52 | 1174.82 | 1168.95
w1 = 0.288 | 1224.11 | 1217.14 | 1210.18 | 1206.76 | 1203.33 | 1196.6 | 1189.76 | 1183.88
w1 = 0.3072 | 1241.05 | 1233.47 | 1227.15 | 1223.62 | 1220.11 | 1213.75 | 1206.84 | 1200.67
w1 = 0.3265 | 1256.77 | 1249.51 | 1242.27 | 1238.85 | 1235.29 | 1228.03 | 1221.02 | 1214.92
w1 = 0.3457 | 1272.18 | 1264.81 | 1257.51 | 1253.89 | 1250.3 | 1243.38 | 1236.27 | 1230.89
w1 = 0.3648 | 1288.04 | 1280.59 | 1273.21 | 1269.57 | 1265.94 | 1258.73 | 1251.57 | 1244.44
w1 = 0.384 | 1305.68 | 1298.19 | 1290.73 | 1287.05 | 1283.37 | 1276.2 | 1268.99 | 1263.24
w1 = 0.4 | 1319.14 | 1311.55 | 1304.07 | 1300.36 | 1296.68 | 1289.37 | 1282.4 | 1275.2
